From patent US9549560B2, “Pesticidal compositions and related methods” (DOW AGROSCIENCES LLC, priority 2013, dated 2017) come the findings set out here.

In general, mortality refers to the percentage killed.

The test system of assay [1] is Green Peach Aphid (Myzus persicae). In words: Bioassay for Green Peach Aphid (GPA) (MYZUPE), foliar spray on cabbage seedlings. It is filed as in vivo. The settings on record: 72 h, 200 ppm foliar spray, graded after three days, Abbott corrected % control, read-out: % Control (or Mortality) rating, GPA. On the procedure: Cabbage seedlings grown in 3-inch pots, with 2-3 small (3-5 cm) true leaves, were used as test substrate. The seedlings were infested with 20-50 GPA (wingless adult and nymph stages) one day prior to chemical application. Four pots with individual seedlings were used for each treatment. Test compounds (2 mg) were dissolved in 2 mL of acetone/methanol (1:1) solvent, forming stock solutions of 1000 ppm test compound. The stock solutions were diluted 5× with 0.025% Tween 20 in H2O to obtain the solution at 200 ppm test compound. A hand-held aspirator-type sprayer was used for spraying a solution to both sides of […] leaves until runoff. Reference plants (solvent check) were sprayed with the diluent only containing 20% by volume of acetone/methanol (1:1) solvent. Treated plants were held in a holding room for three days at approximately 25° C. and ambient relative humidity (RH) prior to grading. Evaluation was conducted by counting the number of live aphids per plant under a microscope. Percent control was measured by using Abbott's correction formula (W. S. Abbott, “A Method of Computing the Effectiveness of an Insecticide,” J. Econ. Entomol. 18 (1925), pp. 265-267) as follows. Corrected % Control=100*(X−Y)/X
X=No. of live aphids on solvent check plants and
Y=No. of live aphids on treated plants
(§1) Biological Data for Green Peach Aphid (GPA) (MYZUPE) and Sweetpotato Whitefly-crawler (WF) (BEMITA)” (See Table Section).

For assay [2], the system named is Sweetpotato Whitefly-Crawler (Bemisia tabaci). In words: Insecticidal test for Sweetpotato Whitefly-Crawler (WF) (BEMITA) in foliar spray assay on cotton plants. It is filed as in vivo. The settings on record: 216 h, 200 ppm foliar spray, graded after 9 days, Abbott corrected % control, read-out: % Control (or Mortality) rating, WF. Here is the method: Cotton plants (Gossypium hirsutum) grown in 3-inch pots, with 1 small (4-5 cm) true leaves, were used as test substrate. The plants were infested with 200-400 whitefly eggs 4-5 days prior to chemical application. Four pots with individual plants were used for each treatment. Test compounds (2 mg) were dissolved in 1 mL of acetone solvent, forming stock solutions of 2000 ppm test compound. The stock solutions were diluted 10× with 0.025% Tween 20 in H2O (diluents) to obtain the solution at 200 ppm test compound. A hand-held aspirator-type sprayer was used for spraying a solution to both sides of cotton leaves until runoff. Reference plants (solvent check) were sprayed with the diluent only containing 10% by volume of acetone solvent. Treated plants were held in a holding room for 9 days at approximately 25° C. and ambient relative humidity (RH) prior to grading. Evaluation was conducted by counting the number of live 3-4 nymph stage per plant under a microscope. Percent control was measured by using Abbott's correction formula (W. S. Abbott, “A Method of Computing the Effectiveness of an Insecticide,” J. Econ. Entomol. 18 (1925), pp. 265-267) as follows. Corrected % Control=100*(X−Y)/X
X=No. of live nymphs on solvent check plants and
Y=No. of live nymphs on treated plants.
as §1

With `CCN(C(=O)C(C)[S+]([O-])CC(F)(F)F)c1cn(-c2ccc[n+]([O-])c2)nc1Cl` (stereo not drawn) [Compound F7, 3-(3-Chloro-4-(N-ethyl-2-((2,2,2-trifluoroethyl)sulfinyl)propanamido)-1H-pyrazol-1-yl)pyridine 1-oxide], the mortality at 200 ppm in assay [1] was 80 to 100%; in assay [2] it was 0 to 80%.
For the compound `CN(C(=O)CC[S+]([O-])CCC(F)(F)F)c1cn(-c2ccc[n+]([O-])c2)nc1Cl` (stereo not drawn) [Compound P2, 3-(3-chloro-4-(N-methyl-3-((3,3,3-trifluoropropyl)sulfinyl)propanamido)-1H-pyrazol-1-yl)pyridine 1-oxide], the mortality at 200 ppm in assay [1] and in assay [2] was 80 to 100% throughout.
For the compound `CC(C[S+]([O-])CCC(F)(F)F)C(=O)N(C)c1cn(-c2ccc[n+]([O-])c2)nc1Cl` (stereo not drawn) [FA8, 3-(3-Chloro-4-(N,2-dimethyl-3-((3,3,3-trifluoropropyl)sulfinyl)propanamido)-1H-pyrazol-1-yl)pyridine 1-oxide], the mortality at 200 ppm in assay [1] and in assay [2] was 80 to 100% each time.
Take `CC(CSCCC(F)(F)F)C(=O)N(C)c1cn(-c2ccc[n+]([O-])c2)nc1Cl` (stereo not drawn) [FA5, 3-(3-Chloro-4-(N,2-dimethyl-3-((3,3,3-trifluoropropyl)thio)propanamido)-1H-pyrazol-1-yl)pyridine 1-oxide]: the mortality at 200 ppm in assay [1] and in assay [2] was 80 to 100% throughout.
Consider `C#CCN(C(=O)CC[S+]([O-])CCC(F)(F)F)c1cn(-c2ccc[n+]([O-])c2)nc1Cl` (stereo not drawn) [Compound P10, 3-(3-chloro-4-(N-(prop-2-yn-1-yl)-3-((3,3,3-trifluoropropyl)sulfinyl)propanamido)-1H-pyrazol-1-yl)pyridine 1-oxide], for which the mortality at 200 ppm in assay [1] and in assay [2] was 80 to 100% each time.
Consider `CCN(C(=O)CCS(=O)(=O)CC1CC1(F)F)c1cn(-c2ccc[n+]([O-])c2)nc1Cl` (stereo not drawn) [Compound F11], for which the mortality at 200 ppm in assay [1] and in assay [2] was 80 to 100% in each case.
On to `CCN(C(=O)C(C)S(=O)(=O)CC(F)(F)F)c1cn(-c2ccc[n+]([O-])c2)nc1Cl` (stereo not drawn) [Compound F8, 3-(3-Chloro-4-(N-ethyl-2-((2,2,2-trifluoroethyl)sulfonyl)propanamido)-1H-pyrazol-1-yl)pyridine 1-oxide], for which the mortality at 200 ppm in assay [1] and in assay [2] was 80 to 100% throughout.
For the compound `CCN(C(=O)CC[S+]([O-])CCC(F)(F)F)c1cn(-c2ccc[n+]([O-])c2)nc1Cl` (stereo not drawn) [Compound F1, 3-(3-chloro-4-(N-ethyl-3-((3,3,3-trifluoropropyl)sulfinyl)propanamido)-1H-pyrazol-1-yl)pyridine 1-oxide], the mortality at 200 ppm in assay [1] and in assay [2] was 80 to 100% each time.
As for `CCN(C(=O)C(C)C[S+](C)[O-])c1cn(-c2ccc[n+]([O-])c2)nc1Cl` (stereo not drawn) [Compound F6], the mortality at 200 ppm in assay [1] and in assay [2] was 80 to 100% in each case.
Take `CCNc1cn(-c2ccc[n+]([O-])c2)nc1C` [CA2, 3-(4-(Ethylamino)-3-methyl-1H-pyrazol-1-yl)pyridine 1-oxide]: the mortality at 200 ppm in assay [1] lay within 0 to 80%; in assay [2], 80 to 100%.
`CCN(C(=O)C(C)C[S+]([O-])CCC(F)(F)F)c1cn(-c2ccc[n+]([O-])c2)nc1Cl` (stereo not drawn) [FA9, 3-(3-Chloro-4-(N-ethyl-2-methyl-3-((3,3,3-trifluoropropyl)sulfinyl)propanamido)-1H-pyrazol-1-yl)pyridine 1-oxide]: the mortality at 200 ppm in assay [1] and in assay [2] was 80 to 100% each time.
In the case of `CN(C(=O)CC[S+]([O-])CCCC(F)(F)F)c1cn(-c2ccc[n+]([O-])c2)nc1Cl` (stereo not drawn) [Compound P63, 3-(3-Chloro-4-(N-methyl-3-((4,4,4-trifluorobutyl)sulfinyl)propanamido)-1H-pyrazol-1-yl)pyridine 1-oxide], the mortality at 200 ppm in assay [1] and in assay [2] was 80 to 100% each time.
In the case of `CCN(C(=O)CC[S+]([O-])CCCC(F)(F)F)c1cn(-c2ccc[n+]([O-])c2)nc1C` (stereo not drawn) [Compound P81, 3-(4-(N-Ethyl-3-((4,4,4-trilluorobutyl)sulfinyl)propanamido)-3-methyl-1H-pyrazol-1-yl)pyridine 1-oxide], the mortality at 200 ppm in assay [1] and in assay [2] was 80 to 100% each time.
Regarding `CCN(C(=O)CCSCC1CC1(F)F)c1cn(-c2ccc[n+]([O-])c2)nc1C` (stereo not drawn) [Compound P74, 3-(4-(3-(((2,2-Difluorocyclopropyl)methyl)thio)-N-ethylpropanamido)-3-methyl-1H-pyrazol-1-yl)pyridine 1-oxide], the mortality at 200 ppm in assay [1] and in assay [2] was 80 to 100% throughout.
For `CNc1cn(-c2ccc[n+]([O-])c2)nc1Cl` [CA3, 3-(3-Chloro-4-(methylamino)-1H-pyrazol-1-yl)pyridine 1-oxide], the mortality at 200 ppm in assay [1] was in the range of 80 to 100%; in assay [2] it was 0 to 80%.
